Our source for the Activity values is ChEMBL document CHEMBL1151347, “Lignans From Justicia flava” (J Nat Prod, 1980).

Structures are written as SMILES. The source made the active and inactive calls. The calls are words filed in the database; no cut-off is given here.

For the first experiment, the species on record is Mus musculus. The experiment can be described thus: Effect on central nervous system in mouse assessed as decrease in motor activity. The class given is functional, organism-based.
Consider `COc1cc(OC)c2c(-c3ccc4c(c3)OCO4)c3c(c(OC)c2c1O)COC3=O`, for which the result was inactive.
For the compound `COc1cc([C@H]2c3cc(O)c(OC)cc3C[C@@H](CO)[C@@H]2CO)ccc1O`, the outcome was inactive.
Still for that read-out and setting: with `O=C1OCc2c1cc1ccc3c(c1c2-c1ccc2c(c1)OCO2)OCO3` the entry was “inactive”.

The species named for a further experiment is Mus musculus. The experiment can be described thus: Effect on central nervous system in mouse assessed as ataxia. It is filed as functional, organism-based.
On to `COc1cc(OC)c2c(-c3ccc4c(c3)OCO4)c3c(c(OC)c2c1O)COC3=O`, for which the result was inactive.
On the same count and under the same terms, with `COc1cc([C@H]2c3cc(O)c(OC)cc3C[C@@H](CO)[C@@H]2CO)ccc1O` the entry was “inactive”; with `O=C1OCc2c1cc1ccc3c(c1c2-c1ccc2c(c1)OCO2)OCO3`, “inactive”.
